# Experimental data: US12018327B2, “Methods and compositions relating to epoxide hydrolase genes” (The Regents of the University of California, priority 2018, dated 2024)
# Key:
# [1] = biological target: transient receptor potential vanilloid 1 (TRPV1) (Homo sapiens, UniProt Q8NER1); settings: ref [15]; cited from earlier work
# human DCs [2] = assay: Gene expression in human DCs by qPCR; assay type: cell-based; settings: 130 μM, two days; relative to beta-actin
# Protocol: Gene expression was examined in human DCs. DCs were isolated as described above and treated for two days with 130 μM 12,13 DiHOME. Cells were washed twice in PBS, and RNA was extracted using the RNAqueous™ Micro Kit (Ambion, Foster City, CA). The RT2 First Strand Kit (Qiagen, Germantown, MD) was used to synthesize cDNA, and expression of CD36, CD1a, FABP4, and HADH relative to beta-actin was measured using Power SYBR Green PCR Master Mix (ThermoFisher Scientific, Waltham, MA) and a QuantStudio 6 Real-Time PCR system (ThermoFisher Scientific, Waltham, MA).
# autologous T cells = assay: Co-culture of 12,13 DiHOME treated DCs with autologous T cells, T cell subsets by flow cytometry; assay type: cell-based, human
# Protocol: Co-culture of human DCs and T cells in the presence of 12,13 DiHOME was performed as previously described. In brief, DCs were isolated from the PBMCs of two healthy human donors and treated for five days with 130 μM 12,13 DiHOME solubilized in 0.2% DMSO or vehicle (0.2% DMSO) in the presence of 20 ng mL^−1 IL-4 (R&D Systems, Minneapolis, MN) and 10 ng mL^−1 GM-CSF (R&D Systems, Minneapolis, MN). Fresh treatment media was added every 48 hrs throughout the course of the study. Eighteen hours prior to co-culture, DCs were stimulated with 10 ng mL^−1 TNFα, IL1β, and IL-6 (Peprotech, Rocky Hill, NJ) and 1 mM prostaglandin E2 (Stemcell Technologies, Cambridge, MA). DCs were subsequently washed and co-cultured with autologous T cells in the presence of 10 ng mL^−1 anti-CD28 and anti-CD49d (BD Bioscience, San Jose, CA).
# After five days of co-culture, T cell subsets were analyzed by flow cytometry. To assess cytokine secretion, cells were stimulated for 16 hrs with Phorbol Myristate Acetate-Ionomycin (ACROS, Morris Planes, NJ) and GolgiPlug (Gplug; BD Biosciences, San Jose, CA). Flow cytometry data was collected on a BD LSR II flow cytometer. Helper T cell subsets were defined as follows: Th1 CD3+CD4+IFNγ+; Th2 CD3+CD4+IL-4+; Th17 CD3+CD4+IL-17+, Treg CD3+CD4+CD25+FoxP3+. The human T cell gating strategy can be found in FIG. 4D.
# PPARγ = assay: PPARγ-activated luciferase reporter assay in Raw264.7 cells; assay type: cell-based; settings: 24 hours after treatment
# Protocol: A modified PPARγ luciferase assay was performed as described in Ye et. al.. A PPRE-luciferase reporter plasmid, PPRE X3-TK-luc from Bruce Spiegelman (Plasmid #1015; Addgene, Cambridge, MA), and a PPARγ overexpression plasmid, pGST-PPARgamma from Bert Vogelstein (Plasmid #16549; Addgene, Cambridge, MA), were ordered from Addgene and purified with the Plasmid Plus Maxi Kit (Qiagen, Germantown, MD). Raw264.7 cells grown in R10 media (Roswell Park Memorial Institute (RPMI) media 1640 with 10% heat-inactivated Fetal Bovine SerμMand 2 mM L-glutamine and 100 U mL^−1 penicillin—streptomycin) were transfected with the PPRE-reporter, PPARγ, and Renilla luciferase plasmid DNA in a 1:20:40 ratio, using 50 ng/well of reporter plasmid DNA. Fugene HD Transfection reagent (Promega, Madison, WI) was combined with plasmid DNA in a 4:1 ratio, and the total volume was brought to 5 μL/well with RPMI. The transfection mixture was gently combined with dilute Raw264.7 cells and plated in black, clear-bottom, 96-well plates at a density of 50,000 cells per well. […] Twenty-four hours after treatment luciferase and Renilla luminescence were measured using the Dual-Glo Luciferase Assay kit (Promega, Madison, WI) on a Cytation 3 plate reader (BioTek Instruments, Winooski, VT).
# [3] = system: human DCs (CD3-CD19-CD11c+); assay: Human DC maturation by flow cytometry (PPARγ-regulated proteins); assay type: cell-based
# Protocol: Human DC maturation was assessed by flow cytometry. PBMCs were isolated from two healthy human donors using Ficoll-Hypaque gradient centrifugation as previously described and cultured for five days in the presence of 20 ng mL^−1 IL-4 and 10 ng mL^−1 GM-CSF. Monocytic DCs (DCs) were defined as CD3-CD19-CD11c+. The DC gating strategy can be found in FIG. 4E.
# human DCs [4] = assay: IL-10 secretion from human DCs, cytometric bead array; assay type: cell-based
# Protocol: IL-10 secretion was measured using a cytometric bead array (BD Biosciences, San Jose, CA). Human DCs were isolated from the peripheral blood mononuclear cells (PBMCs) of two healthy human donors as previously described and treated with increasing concentrations of 12,13 DiHOME (Cayman Chemical, Ann Arbor, MI) solubilized in 0.2% dimethylsulfoxide (DMSO). […] IL-10 concentrations were determined according to the manufacturer's instructions.
# Sequence of transient receptor potential vanilloid 1 (TRPV1) (Q8NER1 whole entry, species assumed): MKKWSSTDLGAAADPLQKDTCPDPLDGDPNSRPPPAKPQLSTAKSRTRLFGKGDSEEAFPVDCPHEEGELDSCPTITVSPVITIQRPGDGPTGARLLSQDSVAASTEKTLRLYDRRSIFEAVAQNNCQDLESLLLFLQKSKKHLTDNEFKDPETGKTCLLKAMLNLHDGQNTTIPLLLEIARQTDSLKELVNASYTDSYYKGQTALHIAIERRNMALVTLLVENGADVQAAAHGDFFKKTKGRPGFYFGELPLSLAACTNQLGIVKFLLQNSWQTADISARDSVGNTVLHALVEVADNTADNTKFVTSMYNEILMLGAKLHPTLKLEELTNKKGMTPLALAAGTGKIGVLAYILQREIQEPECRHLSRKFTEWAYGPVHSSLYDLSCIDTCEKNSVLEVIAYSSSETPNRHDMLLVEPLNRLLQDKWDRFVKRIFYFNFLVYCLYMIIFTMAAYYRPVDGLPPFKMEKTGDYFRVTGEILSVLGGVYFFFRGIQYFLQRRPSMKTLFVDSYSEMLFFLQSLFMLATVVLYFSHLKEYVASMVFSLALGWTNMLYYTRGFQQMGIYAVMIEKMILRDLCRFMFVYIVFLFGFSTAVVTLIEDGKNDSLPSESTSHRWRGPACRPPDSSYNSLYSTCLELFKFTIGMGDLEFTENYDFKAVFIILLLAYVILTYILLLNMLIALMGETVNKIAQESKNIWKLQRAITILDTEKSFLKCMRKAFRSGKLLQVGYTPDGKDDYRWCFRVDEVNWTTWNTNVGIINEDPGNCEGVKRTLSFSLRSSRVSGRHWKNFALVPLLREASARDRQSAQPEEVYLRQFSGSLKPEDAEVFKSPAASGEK
compound,measurement,setting,value
"CCCCCC(O)C(O)C/C=C\CCCCCCCC(=O)O (centres unmarked) [12,13 DiHOME]",action on TRPV1,[1],activator
same,expression of CD1a (RNA),human DCs [2],significant decrease
same,expression of CD36 (RNA),human DCs [2],significant increases
same,expression of FABP4 (RNA),human DCs [2],significant increases
same,expression of HADH (RNA),human DCs [2],significant increases
same,cell viability,autologous T cells; DC and T cell co-culture,without decreasing
same,distribution of helper T cells,autologous T cells; DCs treated with 130 μM,significant shift
same,frequency of Tregs (CD3+CD4+CD25+FoxP3+),autologous T cells; DCs treated with 130 μM,specific decrease
same,concentrations that lead to PPARγ activation,PPARγ,> 50 µM
same,expression of CD36 on DCs,[3]; high concentrations (200 μM),increase
same,cell viability,"[3]; human DCs, flow cytometry",did not alter
same,expression of CCR7 on DCs,[3]; increasing doses,significant decrease
same,expression of CD1a on DCs,[3]; increasing doses,significant decrease
same,expression of CD80 on DCs,[3]; increasing doses,significant decrease
same,IL-10 secretion 24 hours after treatment,"human DCs [4]; 130 μM, 24 hr",significant decreases
same,IL-10 secretion 48 hours after treatment,"human DCs [4]; 130 μM, 48 hr",significant decreases
same,IL-10 secretion from human DCs,"human DCs [4]; 75, 130, 200 μM, supernatant after 24 hours",dose-dependent decrease
